Assay results published in ChEMBL document CHEMBL1201862, “PubChem BioAssay data set” (2004).
Blank lines part the entries; values can stand above or below the molecule they belong to. Activity calls are given as the source filed them.

Legend:
[1] = target: T1, High affinity choline transporter 1 (Homo sapiens, UniProt Q9GZV3); assay: human choline transporter potentiators, potency – cell-based, 10-point CRC, membrane potential dye, dose response (AID 602376); type: functional
T1 sequence (Q9GZV3 whole entry): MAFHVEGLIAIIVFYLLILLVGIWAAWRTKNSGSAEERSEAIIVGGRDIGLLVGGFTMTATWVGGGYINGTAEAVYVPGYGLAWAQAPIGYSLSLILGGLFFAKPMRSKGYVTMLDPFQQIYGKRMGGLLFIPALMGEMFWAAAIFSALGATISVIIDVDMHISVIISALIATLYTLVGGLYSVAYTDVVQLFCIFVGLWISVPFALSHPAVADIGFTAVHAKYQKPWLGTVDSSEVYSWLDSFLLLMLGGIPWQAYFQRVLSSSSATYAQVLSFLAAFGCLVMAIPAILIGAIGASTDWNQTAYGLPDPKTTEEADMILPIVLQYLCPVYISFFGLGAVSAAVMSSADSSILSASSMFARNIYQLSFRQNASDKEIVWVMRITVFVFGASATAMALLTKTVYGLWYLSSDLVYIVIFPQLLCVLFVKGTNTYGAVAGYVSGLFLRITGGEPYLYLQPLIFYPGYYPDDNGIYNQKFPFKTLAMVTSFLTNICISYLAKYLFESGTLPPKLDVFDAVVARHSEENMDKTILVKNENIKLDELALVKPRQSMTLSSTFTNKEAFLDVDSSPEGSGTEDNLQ

[2] = target: DNA dC->dU-editing enzyme APOBEC-3A (Homo sapiens, UniProt P31941); assay: Dose Response confirmation of small molecule APOBEC3A DNA Deaminase Inhibitors via a fluorescence-based single-stranded DNA deaminase assay. [Related pubchem assays (depositor defined):AID493011, AID493024]; type: functional
[3] = target: DNA dC->dU-editing enzyme APOBEC-3G (Homo sapiens, UniProt Q9HC16); type: functional;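 also: Dose-response counterscreen measuring inhibition of APOBEC3G DNA deaminase activity, run while confirming APOBEC3A inhibitors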
[4] = target: Benomyl/methotrexate resistance protein (Candida albicans, UniProt P28873); assay: Candida albicans Mdr1 pump inhibition curves – singleplex, Cherry Pick1 hits, dose response (AID 588608); type: functional
[5] = target: T1, High affinity choline transporter 1; assay: human choline transporter blockers, potency – cell-based, 5-point CRC, membrane potential dye, dose response (AID 504840); type: functional
[6] = target: T1, High affinity choline transporter 1; assay: human choline transporter blockers, potency – cell-based, 10-point CRC, membrane potential dye, dose response (AID 588401); type: functional;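 also: membrane potential dye fluorescence of choline-evoked depolarization via CHT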
[7] = NIH3T3 cell viability loss – ATP luminescence, mouse fibroblasts, counter-screen, dose response (AID 2010); type: functional, cell-based;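 also: cells exposed to compound for about 90 hours before reading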
[8] = Trypanosoma cruzi growth suppression in host cells – NIH3T3 host cells, beta-gal luminescence, confirmation (AID 2044); type: functional, cell-based;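 also: intracellular parasites grown in NIH/3T3 mouse fibroblasts as host cells; luminescent beta-galactosidase reporter signal from transgenic T. cruzi replicating inside host cells; inhibitors lower the luminescence signal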
CHO = CHO cell viability loss, potency – luminescence, cytotoxicity control for TLR9-MyD88 binding inhibitor project, dose response (AID 588339); type: functional, cell-based, hamster; details: Cricetulus griseus;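 also: CHO cells stably coexpressing TLR9 and MyD88 fusions from primary screen; compound exposure lasted 48 hours before viability readout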
[9] = non-specific 3'UTR reporter inhibition in Clone20-Shn3RL – cell-based, Renilla luciferase, cherry-picked, counter-screen for Shn3 inhibitor project, dose response (AID 624133); type: functional
[10] = Luminescence Cell-Based Dose Retest to Confirm Inhibitors of Cancer Stem Cells. [Related pubchem assays (depositor defined):AID2717, AID2721]; type: functional; details: Homo sapiens
Fatty acid synthase [11] = target: T2, Fatty acid synthase (Homo sapiens, UniProt P49327); assay: inhibition of human FAS-TE enzyme activity – biochemical, endpoint fluorescence intensity, uHTS hits, dose response (AID 624327); type: functional;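 also: fluorescence from hydrolysis of an O-methyl fluorescein acyl ester substrate by the enzyme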
[12] = target: ATP-binding cassette sub-family B member 6 (Homo sapiens, UniProt Q9NP58); assay: concentration-dependent ABCB6 porphyrin transport blockade – K562-ABCB6 cells, flow cytometry, cherry pick 1, dose response (AID 623955); type: functional; details: read-out: EC50_MICROM
Paired box protein Pax-8 = Paired box protein Pax-8 (Homo sapiens, UniProt Q06710); assay: PAX8 transcriptional activity inhibition in RMG-I – RMG-I cells, luciferase, cherry-pick, dose response (AID 687027); type: functional, cell-based;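 also: luciferase reporter driven by Pax8 target thyroperoxidase promoter measured by SteadyGlo luminescence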
[13] = target: Heat shock protein HSP 90-alpha (Homo sapiens, UniProt P07900); type: functional, organism-based
[14] = reduction of Shn3 3'UTR-driven luciferase in osteoblasts – cell-based, Clone20 osteoblasts, firefly luciferase, cherry-picked, dose response (AID 624132); type: functional;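 also: firefly luciferase luminescence from reporter carrying the Shn3 3'UTR in osteoblasts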
[15] = loss of viability in HepG2 cells – cell-based, CellTiter-Glo, cherry-picked, cytotoxicity control for Shn3 inhibitor project, dose response (AID 624134); type: functional
Beta Lactamase = Beta Lactamase (Pseudomonas aeruginosa, UniProt Q932Y6); assay: BLA reporter interference, concentration series – BLA reporter cells, FRET fluorescence, artefact control for TLR9-MyD88 binding inhibitor project, dose response (AID 588341); type: cell-based;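 also: cell based assay in CHO-K1 cells stably expressing beta-lactamase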
Beta-galactosidase = Beta-galactosidase (Escherichia coli, UniProt Q8VNN2); assay: PubChem AID 485352; type: functional
A-375 [16] = assay: MITF: Counter assay: A375 proliferation Measured in Cell-Based System Using Plate Reader - 2084-03_Inhibitor_Dose_DryPowder_Activity. [Related pubchem assays (depositor defined):AID488944]; type: functional; details: Homo sapiens
[17] = target: Type-1 angiotensin II receptor (Homo sapiens, UniProt P30556); assay: antagonism of angiotensin II type 1 receptor – cell-based, uHTS hits, selectivity assay for APJ receptor antagonist project, dose response (AID 463214); type: functional;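 also: antagonist potency against angiotensin II stimulated AT1 response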
[18] = target: T3, Microphthalmia-associated transcription factor (Homo sapiens, UniProt O75030); assay: reducers of TRPM1 reporter luminescence, concentration series – cell-based, SK-MEL-5, cherry-picked, set 3, MITF inhibitor project, dose response (AID 493073); type: functional;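 also: SK-MEL-5 melanoma cells with luciferase driven by the MITF target TRPM1 promoter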
T3 sequence (O75030 whole entry): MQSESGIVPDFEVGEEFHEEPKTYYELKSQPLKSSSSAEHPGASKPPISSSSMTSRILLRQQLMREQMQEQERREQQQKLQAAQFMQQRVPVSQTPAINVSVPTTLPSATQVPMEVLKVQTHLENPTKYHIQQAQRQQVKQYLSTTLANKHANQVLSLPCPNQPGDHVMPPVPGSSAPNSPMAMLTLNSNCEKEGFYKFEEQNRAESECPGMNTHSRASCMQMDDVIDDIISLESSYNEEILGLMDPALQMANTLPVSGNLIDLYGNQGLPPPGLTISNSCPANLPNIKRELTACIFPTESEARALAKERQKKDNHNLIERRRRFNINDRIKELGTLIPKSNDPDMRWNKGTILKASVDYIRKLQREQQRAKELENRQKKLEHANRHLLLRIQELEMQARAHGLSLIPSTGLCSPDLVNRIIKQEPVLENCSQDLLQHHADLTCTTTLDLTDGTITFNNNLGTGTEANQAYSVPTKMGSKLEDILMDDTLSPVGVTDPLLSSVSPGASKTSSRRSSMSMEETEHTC

Fatty acid synthase [19] = target: T2, Fatty acid synthase; assay: inhibition of human FAS-TE enzyme activity – biochemical, kinetic fluorescence intensity, dose response (AID 624326); type: functional;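 also: rate of fluorescence rise from hydrolysis of a fluorogenic O-methyl fluorescein ester substrate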
A-375 [20] = assay: proliferation inhibition in MITF-low A375 cells – cell-based, cherry-pick samples, set 2, counter-screen for MITF modulator project, dose response (AID 540335); type: functional; details: Homo sapiens
Interleukin-8 = Interleukin-8 (Homo sapiens, UniProt P10145); assay: Dose Response confirmation of uHTS small molecule hits for cystic fibrosis induced NFkb Inhibitors in a PAF-induced IL8 counterscreen.; type: functional; details: read-out: IC50_Mean
Chain of Interleukin-8 (P10145 whole entry): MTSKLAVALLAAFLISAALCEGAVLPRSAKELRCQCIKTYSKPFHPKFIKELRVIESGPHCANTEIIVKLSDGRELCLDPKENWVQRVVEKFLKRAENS

T2 sequence (P49327 whole entry): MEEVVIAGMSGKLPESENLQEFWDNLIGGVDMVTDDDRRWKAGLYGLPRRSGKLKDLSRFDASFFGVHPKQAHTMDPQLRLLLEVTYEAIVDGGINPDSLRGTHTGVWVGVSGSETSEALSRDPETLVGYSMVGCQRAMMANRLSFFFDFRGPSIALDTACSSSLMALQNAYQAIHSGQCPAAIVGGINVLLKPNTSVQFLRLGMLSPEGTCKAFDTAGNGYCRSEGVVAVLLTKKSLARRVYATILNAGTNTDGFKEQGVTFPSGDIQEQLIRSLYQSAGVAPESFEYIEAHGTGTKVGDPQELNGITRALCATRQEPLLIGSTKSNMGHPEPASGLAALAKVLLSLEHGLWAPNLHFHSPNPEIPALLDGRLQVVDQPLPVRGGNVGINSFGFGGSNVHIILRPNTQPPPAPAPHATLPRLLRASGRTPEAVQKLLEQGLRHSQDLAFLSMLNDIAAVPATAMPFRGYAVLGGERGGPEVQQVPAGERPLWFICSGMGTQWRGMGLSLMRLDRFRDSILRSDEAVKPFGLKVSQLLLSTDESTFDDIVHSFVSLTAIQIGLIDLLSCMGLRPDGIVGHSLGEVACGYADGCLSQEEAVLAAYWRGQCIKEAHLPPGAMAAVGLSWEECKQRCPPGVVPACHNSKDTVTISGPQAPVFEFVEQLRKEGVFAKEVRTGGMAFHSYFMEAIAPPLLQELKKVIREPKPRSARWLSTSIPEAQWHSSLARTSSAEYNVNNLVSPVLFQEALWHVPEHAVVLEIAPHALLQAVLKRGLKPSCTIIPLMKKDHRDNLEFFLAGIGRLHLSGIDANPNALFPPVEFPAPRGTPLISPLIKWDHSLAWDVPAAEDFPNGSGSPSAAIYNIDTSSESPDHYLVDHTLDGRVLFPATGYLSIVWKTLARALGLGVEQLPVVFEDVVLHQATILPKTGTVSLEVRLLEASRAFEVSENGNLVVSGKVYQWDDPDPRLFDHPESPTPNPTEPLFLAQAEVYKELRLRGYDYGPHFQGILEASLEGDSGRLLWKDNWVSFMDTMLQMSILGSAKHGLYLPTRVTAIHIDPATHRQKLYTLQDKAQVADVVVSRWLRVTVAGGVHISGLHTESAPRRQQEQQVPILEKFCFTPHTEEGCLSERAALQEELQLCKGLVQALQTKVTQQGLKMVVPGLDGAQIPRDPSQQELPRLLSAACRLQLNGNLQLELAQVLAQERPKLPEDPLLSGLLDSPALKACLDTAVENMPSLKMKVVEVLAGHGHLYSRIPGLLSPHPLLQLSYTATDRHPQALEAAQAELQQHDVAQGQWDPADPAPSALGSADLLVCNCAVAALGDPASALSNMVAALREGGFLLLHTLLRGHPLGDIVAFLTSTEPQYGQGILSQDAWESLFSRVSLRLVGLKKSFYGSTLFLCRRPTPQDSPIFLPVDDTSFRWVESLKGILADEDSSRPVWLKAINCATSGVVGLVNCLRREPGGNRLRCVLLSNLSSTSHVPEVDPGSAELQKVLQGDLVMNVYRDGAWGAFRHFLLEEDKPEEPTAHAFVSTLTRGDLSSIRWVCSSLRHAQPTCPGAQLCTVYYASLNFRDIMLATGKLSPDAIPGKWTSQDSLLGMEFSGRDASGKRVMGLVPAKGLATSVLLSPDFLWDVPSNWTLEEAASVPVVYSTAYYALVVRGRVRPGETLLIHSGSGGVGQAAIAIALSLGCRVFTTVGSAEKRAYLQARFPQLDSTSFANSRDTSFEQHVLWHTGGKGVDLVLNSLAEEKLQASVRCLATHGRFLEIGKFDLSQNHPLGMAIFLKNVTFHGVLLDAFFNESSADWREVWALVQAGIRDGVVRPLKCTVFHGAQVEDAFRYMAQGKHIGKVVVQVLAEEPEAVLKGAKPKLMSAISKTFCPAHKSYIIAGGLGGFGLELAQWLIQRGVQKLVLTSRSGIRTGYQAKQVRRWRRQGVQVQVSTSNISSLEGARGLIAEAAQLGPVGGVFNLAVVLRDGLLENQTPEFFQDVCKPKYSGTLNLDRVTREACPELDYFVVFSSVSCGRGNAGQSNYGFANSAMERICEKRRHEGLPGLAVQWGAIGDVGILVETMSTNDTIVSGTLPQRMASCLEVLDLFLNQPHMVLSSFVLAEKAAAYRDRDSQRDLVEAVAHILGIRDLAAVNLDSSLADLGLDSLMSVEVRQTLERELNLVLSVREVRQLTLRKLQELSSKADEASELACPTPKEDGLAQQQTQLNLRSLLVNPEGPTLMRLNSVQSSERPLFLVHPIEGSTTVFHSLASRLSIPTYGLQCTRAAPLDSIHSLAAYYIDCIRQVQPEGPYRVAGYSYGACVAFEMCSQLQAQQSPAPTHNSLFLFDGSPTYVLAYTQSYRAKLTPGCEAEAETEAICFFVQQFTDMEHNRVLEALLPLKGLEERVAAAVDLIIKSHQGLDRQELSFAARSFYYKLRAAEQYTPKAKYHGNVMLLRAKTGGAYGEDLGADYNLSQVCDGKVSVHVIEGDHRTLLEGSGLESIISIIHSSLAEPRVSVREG
Chain of Type-1 angiotensin II receptor (P30556 whole entry): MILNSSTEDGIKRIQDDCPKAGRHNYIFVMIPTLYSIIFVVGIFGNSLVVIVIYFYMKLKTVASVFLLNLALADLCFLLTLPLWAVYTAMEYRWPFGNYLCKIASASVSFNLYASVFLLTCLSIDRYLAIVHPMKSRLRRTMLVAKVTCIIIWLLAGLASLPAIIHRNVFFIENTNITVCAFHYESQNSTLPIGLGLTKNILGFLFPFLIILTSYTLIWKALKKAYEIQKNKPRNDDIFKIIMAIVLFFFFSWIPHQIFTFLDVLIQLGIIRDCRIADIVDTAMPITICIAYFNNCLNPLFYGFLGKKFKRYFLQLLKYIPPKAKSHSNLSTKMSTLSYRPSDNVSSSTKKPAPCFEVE
Chain of Benomyl/methotrexate resistance protein (P28873 whole entry): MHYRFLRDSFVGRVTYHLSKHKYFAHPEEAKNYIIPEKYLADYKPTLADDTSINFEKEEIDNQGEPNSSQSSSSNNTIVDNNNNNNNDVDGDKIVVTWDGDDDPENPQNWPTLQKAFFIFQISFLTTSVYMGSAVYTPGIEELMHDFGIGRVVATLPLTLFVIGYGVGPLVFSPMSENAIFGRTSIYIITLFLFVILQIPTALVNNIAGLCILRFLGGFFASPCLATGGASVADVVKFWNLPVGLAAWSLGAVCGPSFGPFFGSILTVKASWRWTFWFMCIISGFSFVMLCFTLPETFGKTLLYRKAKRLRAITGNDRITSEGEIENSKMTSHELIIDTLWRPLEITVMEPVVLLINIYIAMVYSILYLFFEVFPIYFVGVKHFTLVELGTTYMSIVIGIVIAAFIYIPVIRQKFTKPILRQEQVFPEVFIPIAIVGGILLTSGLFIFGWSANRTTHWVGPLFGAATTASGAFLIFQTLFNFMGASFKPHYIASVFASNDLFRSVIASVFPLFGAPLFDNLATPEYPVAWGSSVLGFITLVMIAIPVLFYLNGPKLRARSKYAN
Chain of Beta-galactosidase (Q8VNN2 whole entry): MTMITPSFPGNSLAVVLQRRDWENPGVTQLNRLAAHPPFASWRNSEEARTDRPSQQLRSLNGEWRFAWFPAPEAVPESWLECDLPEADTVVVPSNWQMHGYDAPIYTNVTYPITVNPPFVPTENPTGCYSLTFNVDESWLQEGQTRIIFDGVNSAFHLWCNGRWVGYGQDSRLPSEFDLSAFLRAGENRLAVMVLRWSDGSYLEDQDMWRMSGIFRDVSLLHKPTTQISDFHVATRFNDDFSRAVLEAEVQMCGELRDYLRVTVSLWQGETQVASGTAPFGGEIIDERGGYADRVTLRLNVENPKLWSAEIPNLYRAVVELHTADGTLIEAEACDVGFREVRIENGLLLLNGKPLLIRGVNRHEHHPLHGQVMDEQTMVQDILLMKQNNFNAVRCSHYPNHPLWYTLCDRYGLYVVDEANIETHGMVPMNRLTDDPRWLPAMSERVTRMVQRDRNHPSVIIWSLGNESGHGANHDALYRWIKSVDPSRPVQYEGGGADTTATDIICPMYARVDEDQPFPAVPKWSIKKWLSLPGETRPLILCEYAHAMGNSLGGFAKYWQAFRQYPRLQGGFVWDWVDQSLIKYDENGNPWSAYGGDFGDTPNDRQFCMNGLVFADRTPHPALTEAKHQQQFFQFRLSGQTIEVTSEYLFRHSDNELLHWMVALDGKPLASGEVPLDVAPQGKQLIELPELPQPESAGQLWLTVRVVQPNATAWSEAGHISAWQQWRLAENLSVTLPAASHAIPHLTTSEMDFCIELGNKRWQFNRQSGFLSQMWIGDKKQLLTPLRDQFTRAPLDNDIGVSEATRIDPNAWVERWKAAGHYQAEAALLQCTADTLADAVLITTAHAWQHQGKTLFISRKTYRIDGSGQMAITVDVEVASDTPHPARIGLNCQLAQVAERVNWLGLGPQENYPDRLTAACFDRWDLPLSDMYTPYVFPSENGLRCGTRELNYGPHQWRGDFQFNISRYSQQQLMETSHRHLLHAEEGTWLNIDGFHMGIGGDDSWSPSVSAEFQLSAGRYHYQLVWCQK
Chain of DNA dC->dU-editing enzyme APOBEC-3G (Q9HC16 whole entry): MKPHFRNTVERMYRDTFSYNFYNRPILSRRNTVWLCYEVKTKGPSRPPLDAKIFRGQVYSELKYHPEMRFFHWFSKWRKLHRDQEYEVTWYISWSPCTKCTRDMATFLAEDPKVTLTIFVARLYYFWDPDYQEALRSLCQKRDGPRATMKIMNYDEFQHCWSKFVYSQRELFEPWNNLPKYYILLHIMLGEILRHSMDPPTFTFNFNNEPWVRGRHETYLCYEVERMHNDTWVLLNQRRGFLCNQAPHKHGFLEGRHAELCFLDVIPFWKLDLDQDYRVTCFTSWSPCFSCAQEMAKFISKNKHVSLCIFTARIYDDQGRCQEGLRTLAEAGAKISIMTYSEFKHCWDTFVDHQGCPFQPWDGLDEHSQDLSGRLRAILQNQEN

SMILES: CCN1C(NCCc2cccnc2)=N[C@@H](c2ccccc2)[C@H](C(=O)OC)[C@H]1C
EC50 [1]: 14.6 µM (active)
IC50 [2]: 4.22 µM (active)
IC50 [3]: 6.37 µM (active)

SMILES: Cc1ccc(C)c(C(=O)COC(=O)c2ccc(C)c(S(=O)(=O)N3CCOCC3)c2)c1
EC50 [4]: 0.704 µM (active)

IC50 [5]: 9.03 µM (active)
IC50 [6]: 4.47 µM (active)
SMILES: COc1ccc(C(=O)c2c3ccc(C(F)(F)F)cc3[n+]([O-])n2CCCN)cc1

SMILES: CCC(C)(C)n1nnnc1C(c1cccnc1)N1CCN(c2cccc(C(F)(F)F)c2)CC1 (stereo unspecified)
EC50 [7]: > 60 µM (not active)
EC50 [1]: 16 µM (active)
EC50 [8]: 0.101 µM (active)

SMILES: O=C(Nc1ccc(F)cc1)c1nc(S(=O)(=O)Cc2ccccc2)ncc1Cl
IC50 (CHO): 2.79 µM (active)
AC50 [9]: 6.61 µM (active)
AC50 [10]: 1.63 µM (active)
IC50 (Fatty acid synthase [11]): 13.4 µM (active)
EC50 [12]: 62.8 µM (active)
AC50 (Paired box protein Pax-8): 10.4 µM (active)
AC50 [13]: 3.46 µM (active)
AC50 [14]: 3.38 µM (active)
AC50 [15]: 22.6 µM (active)
IC50 (Beta Lactamase): 5.43 µM (active)
EC50 (Beta-galactosidase): > 40 µM (inactive)
AC50 (A-375 [16]): > 11 µM (active)
IC50 [17]: 11.8 µM (active)
AC50 [18]: 9.45 µM (active)
IC50 (Fatty acid synthase [19]): 8.67 µM (active)
AC50 (A-375 [20]): > 11 µM (active)

IC50 (Interleukin-8): > 79 µM (inactive)
SMILES: CC(=O)c1c(C)n(-c2ccc(C)cc2C)c2ccc(O)cc12
